Laboratory results from patent publication US5077296A, “Method for treating equine navicular disease with pentoxifylline, and composition containing pentoxifylline for administrating to horses” (priority 1987, dated 1991).
Several values for one entry are separate records, joined by “and”; a condition that tells them apart may be missing. Equal entries are not always repeated.

Legend:
[1] = tested on: navicular disease; test: Conventional navicular disease treatments (background discussion); format: in vivo; conditions: horse #18 (Molson), intermittent lameness over previous 5 months
From the text: To illustrate the advantages of pentoxifylline over existing navicular disease treatments, the following conventional treatments will be discussed herein.

[2] = tested on: navicular disease; conditions: cited from earlier work
[3] = tested on: navicular disease; test: Long term efficacy: follow up evaluation of soundness after termination of the 6 week treatment; format: in vivo, horse
From the text: Ten horses received a further follow up evaluation after termination of the 6 week treatment period. The horses are listed below, along with the date of visit (weeks post-initiation of study) and the soundness evaluation.

[4] = cited from earlier work
[5] = tested on: navicular disease; test: Efficacy of oral pentoxifylline in the treatment of navicular disease in horses (6 week lameness study); format: in vivo, horse
From the text: As previously mentioned, it is preferred to administer daily doses of pentoxifylline for a prescribed period of time in order to alleviate lameness caused by navicular disease. […] It is preferred to administer the daily doses tid. In this regard, powder, tablet or capsule formulations, containing between 2-10 gm of pentoxifylline should be administered for this purpose. As previously indicated, the amount of daily doses is dependent on a variety of factors, including the size of the horse being treated.
The purpose of the following study was to assess the efficacy of pentoxifylline in the treatment of navicular disease in horses; to establish an appropriate dosage and treatment interval, and to identify adverse effects from treatment.
Twenty-seven horses entered the study between September 1985 and March 1986.
Pentoxifylline was supplied as an oral powder prepared in individual plastic vials of 2 gm Pentoxifylline mixed with 4 gm icing sugar, to ensure palatability.
Diagnosis of navicular disease was made using the following criteria:
1) history - including clinical and previous treatment history.
lameness observed at walk and while lunging to the left and to the right.
3) diagnostic posterior digital nerve block
horses not sound following bilateral desensitization of the posterior digital nerves were not admitted into the study
4) radiographic examination of confirmation of disease as noted by classical navicular lesions, on a minimum of three views
Treatment was administered daily for 42 days.
Horses were characterized as either severely lame, moderately lame, or slightly lame, as follows:
Treatment response was classified as excellent, good, fair, or poor.
Soundness was subjectively rated by the veterinarian on a percent basis. Percent soundness at the study's onset was subtracted from percent soundness at the study's conclusion, and this difference was plotted as a histogram (graph 2), to show the magnitude of improvement with the 6 week course of treatment. At week 4 there was an average of 57% improvement. For instance, horse number 3 was rated as 25% sound at the onset of the study, and 100% sound after six weeks, yielding an improvement of 75%.

[6] = in vivo
From the text: (§1) Follow-up observations occurred weekly during the six week treatment period, and for a final time approximately 4 weeks after the 6 week treatment period was over. The follow-up visits consisted of a lameness evaluation on the lunge line, at the walk and at rest. Owners/trainers were asked to report any side effects observed that may or may not have been related to Pentoxifylline therapy, and any other problems that had arisen during the week, concurrent medications administered for other causes, and the horse's progress while being exercised. Blood samples were drawn prior to first treatment, at 3 weeks, and at 6 weeks for routine hematological and clinical chemistry profiles. Samples were drawn prior to lameness examination after the horse had been resting quietly in the stall. Most samples were drawn early in the afternoon, and were immediately submitted to Metro Animal Laboratories, Bloor Street, Toronto.

[7] = Side effects during the study
From the text: as §1

[8] = duration of lameness 2 years-5 years (5)
[9] = duration of lameness 5 years (4)
[10] = duration of lameness 6 months (7)
[11] = duration of lameness <6 months, >2 years (11)
[12] = lameness at onset moderate (11)

## CCCCC1C(=O)N(c2ccccc2)N(c2ccccc2)C1=O [phenylbutazone]
[1]
  response to previous treatment: responded
[2]; in vivo
  side effects: risk of gastric and cecal ulcers and kidney damage

## CC(=O)CC(c1ccccc1)c1c(O)c2ccccc2oc1=O (racemic) [Warfarin]
[2]; accidental lacerations or injuries
  safety disadvantage: can be fatal due to hemmorrhage

## CC(COc1ccccc1)NC(C)C(O)c1ccc(O)cc1 (stereo not shown) [Isoxsuorine]
[2]; generic, unpredictable results
  efficacy: Approximately 50%

## CC(=O)CCCCn1c(=O)c2c(ncn2C)n(C)c1=O [pentoxifylline, 1-(5-oxohexyl)-3,7-dimethylxanthine]
[3]; 2 weeks after cessation, Innovator, Capital Gains, Ensign
  horses judged to be sore again after cessation of treatment: Three horses
[3]; horse 1 Jake, 9 weeks post-initiation
  follow up soundness: 80 % sound
[3]; horse 1 Jake, 11 weeks, being ridden
  follow up soundness: still sound
[3]; horse 1 Jake, 20 weeks, being ridden
  follow up soundness: 100 % sound
[3]; horse 1 Jake, greater than 6 weeks
  Status: Improved
[3]; horse 2 Lucky Lion, 2 gm once per day maintenance at 10 weeks
  Status: Improved
[3]; horse 3 Remeny
  Status: Improved
[3]; horse 3 Remeny, 12 weeks
  follow up soundness: hunting sound
[3]; horse 3 Remeny, 18 weeks
  follow up soundness: very sound
[3]; horse 4 Ensign
  Status: Same
[3]; horse 4 Ensign, 8 weeks
  follow up soundness: sore RF
[3]; horse 4 Ensign, 11 weeks, when given 2 gm/day
  follow up soundness: sound again
[3]; horse 5 Wessex
  Status: Improved
[3]; horse 5 Wessex, 15 weeks, compared with end of the 6 weeks
  follow up soundness: sounder than
[3]; horse 11 Capital Gains
  Status: Improved
[3]; horse 11 Capital Gains, 8 weeks, without drug
  follow up soundness: less sound
[3]; horse 13 Peaches 'N Cream
  Status: Same
[3]; horse 13 Peaches 'N Cream, 11 weeks, compared with when entered study
  follow up soundness: as sound
[3]; horse 14 Cash in McCue
  Status: Improved
[3]; horse 14 Cash in McCue, 12 weeks
  follow up soundness: 100 % sound
[3]; horse 16 B. E. Skipper
  Status: Improved
[3]; horse 16 B. E. Skipper, 11 weeks, looks sound in field
  follow up soundness in field: 100 % sound
[3]; horse 16 B. E. Skipper, 11 weeks, riding again
  follow up soundness: 90 % sounder
[3]; horse 20 Innovator
  Status: Worse
[3]; horse 20 Innovator, 7 weeks
  follow up soundness to LT: 80 % sounder
  follow up soundness to RT: 90 % sounder
[3]; horse 20 Innovator, 9 weeks, compared with before treatment
  follow up lameness: as lame at 9 weeks as he had been prior to treatment
[3]; of 10 horses followed up
  horses considered sounder than at the end of the 6 week treatment period: Seven of these 10 horses
[3]; other horses
  pattern when drug administration ceased: regressed rapidly when treatment ended
[3]; some cases
  pattern when drug administration ceased: maintained the improvement noted at 6 weeks
[4]; human side effect
  Sweating in humans: occasional human side effect
[4]; lag in horses said to be similar
  lag period to maximum response in man: two week period
[5]; 1 week
  response over time: evident at 1 week
[5]; 2 and 3 weeks
  response over time: marked at 2 and 3 weeks
[5]; 2 gm bid
  response at dose: not considered consistently optimal
[5]; 6 gram dosage divided tid
  response at dose: achieved the best results
[5]; between 4 and 6 weeks
  response over time: did not regress between 4 and 6 weeks
[5]; cases of greater than 5 years duration, 4 horses
  excellent responses, % of horses: 50%
[5]; cases of greater than 5 years duration, out of 4 horses
  excellent responses, number of horses: 2 horses
[5]; daily doses between 6 gm and 30 gm for 4-6 weeks
  effect on navicular lameness: effective in completely eliminating navicular lameness
[5]; [8]
  Response excellent, number of horses: 2 horses
  Response good, number of horses: 1 horses
  Response poor, number of horses: 1 horses
[5]; [9]
  Response excellent, number of horses: 2 horses
  Response fair, number of horses: 1 horses
  Response good, number of horses: 1 horses
[5]; [10]
  Response excellent, number of horses: 4 horses
  Response good, number of horses: 1 horses
  Response poor, number of horses: 1 horses
[5]; [11]
  Response excellent, number of horses: 7 horses
  Response fair, number of horses: 1 horses
  Response good, number of horses: 2 horses
  Response poor, number of horses: 1 horses
[5]; duration of lameness up to two years, 18 horses
  excellent responses, % of horses: 61%
[5]; duration of lameness up to two years, out of 18 horses
  excellent responses, number of horses: 11 horses
[5]; horse #9 (It's Casual), six week course, previous bilateral neurectomy
  treatment response: never showed significant improvement
[5]; horse #15 (Cheska)
  treatment assessment: refractory to pentoxifylline treatment
[5]; horse #15 (Cheska), end of 4 weeks, dosage increased to 2 gm tid
  evaluated sounder: 90%
[5]; horse #15 (Cheska), first 3 weeks, 2 gm bid, drug not administered properly
  treatment response: virtually no response
[5]; horse #15 (Cheska), weeks 5 and 6, after jumping in 4th week
  lameness: as lame as at the beginning
[5]; horse #18 (Molson), irregular treatment
  treatment assessment: refractory to treatment
[5]; horse #18 (Molson), week 3 and week 5
  treatment response: marked improvement
[5]; horse #18 (Molson), week 6, inconsistent drug administration
  lameness: as lame as at the onset of the study
[5]; horse number 3, 25% sound at onset
  percent soundness after six weeks: 100%
[5]; horse number 3, six weeks vs onset
  improvement in percent soundness: 75%
[5]; horses with moderate lameness
  response by lameness at onset: preponderance of excellent responses
[5]; [12]
  Response excellent, number of horses: 7 horses
  Response fair, number of horses: 2 horses
  Response good, number of horses: 1 horses
[5]; lameness at onset severe (8)
  Response good, number of horses: 1 horses
  Response poor, number of horses: 3 horses
[5]; lameness at onset slight (2)
  Response good, number of horses: 2 horses
[5]; lameness at onset slight-moderate (6)
  Response excellent, number of horses: 6 horses
[5]; n = 25, oral, 42 days
  Response fair, number of horses: 2 horses
  Response good, number of horses: 5 horses
  Response poor, number of horses: 3 horses
[5]; n = 25, oral, 42 days, 2 gm bid or tid
  Response excellent, number of horses: 15 horses
[5]; oral, 4 to 6 week treatment
  Response excellent, % of horses: 63%
  Response fair, % of horses: 8%
  Response good, % of horses: 20% and 17%
[5]; oral, 42 days
  Response poor, % of horses: 13%
[5]; response over time, graph 1
  time of maximal response: 4 weeks
[5]; varying severity and duration
  effect on lameness of navicular disease: effective in alleviating the lameness
[5]; week 4, subjective rating by veterinarian, difference from onset
  average improvement in percent soundness: 57%
[6]
  Baso mean: 0.5%
  Cl mean: 98.9 mmol/L
  Clinical chemistry values vs equine reference range: within the reference range for the equine species
  Hematology values vs normal limits: within normal limits throughout the study
  Mean clinical chemistry values vs baseline: did not differ significantly
  Number of horses with platelets increased since baseline: 20 horses
  Platelets increase: 4,520
  clinical effect on blood chemistry: no clinical effect
  horses with lower platelet count at week 6 than at week 3: 13 horses
[7]; horse 14 Cash in McCue, after 2 weeks
  Sweating episodes: 5 episodes
[7]; horse 15 Cheska, RF at week 6
  Stocked up, number of horses: 1 horses
[7]; horse 23 Greek Anthem, between weeks 2 and 3, previous history of colic
  Colic, number of horses: 1 horses
[7]; horses 14 and 20
  Sweating, number of horses: 2 horses
[7]; in vivo
  Colic, relation to drug: unrelated
  Stocked up, relation to drug: unrelated
  harmful side effects: have not been identified
  horses with unusual occurrences: Four horses
[7]; throughout the study
  instances judged drug-related side effect: 1
